Experimental data from publication PMC4505625 (Cancer cell, 2015).
Each block holds one compound with its values, some of them ahead of it.

Legend:
CRLF2-rearranged PDXs [1] = test: PDX cells ex vivo, proliferation and apoptosis; assay type: cell-based, human; settings: 1 μM; B-ALL-X2, -X3, -X4, -X6
MHH-CALL4 cells [2] = test: Immunoblotting of MHH-CALL4 lysates; assay type: cell-based, human; settings: 1 μM, 2 hr
[3] = system: Eμ-CRLF2/Eμ-Jak2 R683G/Ts1Rhr/Pax5+/− (line 2539p) B-ALL; test: Transplanted transgenic murine B-ALL model; settings: 14 days of treatment from day 15 after transplant
MHH-CALL4 cells [4] = test: Synergy screen with B-ALL chemotherapies; assay type: cell-based, human; settings: isobologram, combination index
[5] = system: Ba/F3-CRLF2 cells expressing JAK2 R683G or JAK2 R683G/L884P; test: Proliferation, L884P versus no L884P, JAK2 R683G; assay type: cell-based; settings: 48 hr
MHH-CALL4 cells [6] = test: MHH-CALL4 cell viability; assay type: cell-based, human; settings: 72 hr
[7] = system: Ba/F3-CRLF2/JAK2 R683G cells; test: Immunoblotting of Ba/F3-CRLF2/JAK2 R683G lysates; assay type: cell-based; settings: 2 hr exposure
[8] = system: Ba/F3-CRLF2 cells transduced with a library of JAK2 R683G; test: Random mutagenesis screen for resistance; assay type: cell-based; settings: 3 μM inhibitor, absence of cytokines
wild-type mice = test: Tolerability in wild-type mice; assay type: in vivo; settings: 30 mg/kg/day for >6 weeks
VEGFR family kinases = test: Cell-based kinase selectivity assay
FLT3 = FLT3 (Homo sapiens, UniProt P36888); test: Off-target activity compared with BBT594
Chain of FLT3 (P36888 27-993, species assumed): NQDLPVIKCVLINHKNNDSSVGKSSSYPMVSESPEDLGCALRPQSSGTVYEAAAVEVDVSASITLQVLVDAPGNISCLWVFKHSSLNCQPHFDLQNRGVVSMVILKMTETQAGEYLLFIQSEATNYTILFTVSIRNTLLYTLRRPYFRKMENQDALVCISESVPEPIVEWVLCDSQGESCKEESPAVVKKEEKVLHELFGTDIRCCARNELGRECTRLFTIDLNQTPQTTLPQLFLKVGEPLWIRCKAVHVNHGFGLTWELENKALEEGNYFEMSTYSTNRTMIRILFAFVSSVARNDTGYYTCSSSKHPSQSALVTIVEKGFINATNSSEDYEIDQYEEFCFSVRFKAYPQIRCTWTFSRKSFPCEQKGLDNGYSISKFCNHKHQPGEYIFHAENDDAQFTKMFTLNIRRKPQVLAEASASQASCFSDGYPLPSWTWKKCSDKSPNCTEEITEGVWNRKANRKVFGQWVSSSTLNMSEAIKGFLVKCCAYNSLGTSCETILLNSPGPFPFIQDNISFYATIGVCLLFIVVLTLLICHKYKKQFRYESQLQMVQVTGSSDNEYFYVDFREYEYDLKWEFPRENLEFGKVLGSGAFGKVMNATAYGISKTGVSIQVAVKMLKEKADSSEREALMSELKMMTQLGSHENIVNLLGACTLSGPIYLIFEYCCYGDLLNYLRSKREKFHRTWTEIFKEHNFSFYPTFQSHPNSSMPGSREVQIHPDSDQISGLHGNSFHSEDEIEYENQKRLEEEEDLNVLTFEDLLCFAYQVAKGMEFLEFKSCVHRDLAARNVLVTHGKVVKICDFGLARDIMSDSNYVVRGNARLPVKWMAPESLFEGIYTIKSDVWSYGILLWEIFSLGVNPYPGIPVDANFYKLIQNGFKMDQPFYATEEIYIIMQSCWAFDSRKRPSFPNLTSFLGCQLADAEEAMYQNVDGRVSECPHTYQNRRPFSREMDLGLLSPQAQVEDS

[9] = system: CRLF2-rearranged B-ALL PDXs
Pharmacokinetics = assay type: in vivo, mice
[10] = molecular target: activated (phosphorylated) JAK2 kinase (Homo sapiens, UniProt O60674); test: JAK2 biochemical kinase assay
Chain of activated (phosphorylated) JAK2 kinase (O60674 808-1132): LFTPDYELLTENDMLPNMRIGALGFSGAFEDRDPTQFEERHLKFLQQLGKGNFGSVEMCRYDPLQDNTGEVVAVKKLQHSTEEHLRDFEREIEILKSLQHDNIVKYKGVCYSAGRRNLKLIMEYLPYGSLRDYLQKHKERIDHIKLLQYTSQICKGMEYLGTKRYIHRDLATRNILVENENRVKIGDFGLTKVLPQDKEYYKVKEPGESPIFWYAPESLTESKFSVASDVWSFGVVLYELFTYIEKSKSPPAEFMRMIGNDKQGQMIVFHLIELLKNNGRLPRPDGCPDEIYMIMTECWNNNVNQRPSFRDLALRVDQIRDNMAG

[11] = system: Ba/F3-CRLF2 cells expressing JAK2 R683G/L884P; test: Immunoblotting of Ba/F3-CRLF2 JAK2 R683G/L884P lysates; assay type: cell-based; settings: concentrations up to 200 nM, 2 hr
CRLF2-rearranged PDXs [12] = test: Dynamic BH3 profiling of PDX cells ex vivo; assay type: cell-based, human; settings: 300 nM, 16 hr ex vivo
BCR-ABL = BCR-ABL (Homo sapiens, UniProt P00519+P11274); test: Off-target activity compared with BBT594
Chain of BCR-ABL (P00519 242-493 limits assumed, one chain of several): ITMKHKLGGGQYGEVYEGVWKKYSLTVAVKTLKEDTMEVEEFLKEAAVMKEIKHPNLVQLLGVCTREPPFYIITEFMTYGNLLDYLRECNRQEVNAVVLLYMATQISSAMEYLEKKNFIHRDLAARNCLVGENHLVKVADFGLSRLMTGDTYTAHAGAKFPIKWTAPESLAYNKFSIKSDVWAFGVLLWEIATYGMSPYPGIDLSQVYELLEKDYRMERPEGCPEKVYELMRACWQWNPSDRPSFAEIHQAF

[13] = system: panel consisting of over 400 kinases; test: In vitro kinase selectivity panel; assay type: biochemical; settings: 100 nM; including JAK2 and TYK2
ABL = ABL (Homo sapiens, UniProt P00519); test: Cell-based kinase selectivity assay; settings: follow-up of kinome panel hit
Chain of ABL (P00519 whole entry, species assumed): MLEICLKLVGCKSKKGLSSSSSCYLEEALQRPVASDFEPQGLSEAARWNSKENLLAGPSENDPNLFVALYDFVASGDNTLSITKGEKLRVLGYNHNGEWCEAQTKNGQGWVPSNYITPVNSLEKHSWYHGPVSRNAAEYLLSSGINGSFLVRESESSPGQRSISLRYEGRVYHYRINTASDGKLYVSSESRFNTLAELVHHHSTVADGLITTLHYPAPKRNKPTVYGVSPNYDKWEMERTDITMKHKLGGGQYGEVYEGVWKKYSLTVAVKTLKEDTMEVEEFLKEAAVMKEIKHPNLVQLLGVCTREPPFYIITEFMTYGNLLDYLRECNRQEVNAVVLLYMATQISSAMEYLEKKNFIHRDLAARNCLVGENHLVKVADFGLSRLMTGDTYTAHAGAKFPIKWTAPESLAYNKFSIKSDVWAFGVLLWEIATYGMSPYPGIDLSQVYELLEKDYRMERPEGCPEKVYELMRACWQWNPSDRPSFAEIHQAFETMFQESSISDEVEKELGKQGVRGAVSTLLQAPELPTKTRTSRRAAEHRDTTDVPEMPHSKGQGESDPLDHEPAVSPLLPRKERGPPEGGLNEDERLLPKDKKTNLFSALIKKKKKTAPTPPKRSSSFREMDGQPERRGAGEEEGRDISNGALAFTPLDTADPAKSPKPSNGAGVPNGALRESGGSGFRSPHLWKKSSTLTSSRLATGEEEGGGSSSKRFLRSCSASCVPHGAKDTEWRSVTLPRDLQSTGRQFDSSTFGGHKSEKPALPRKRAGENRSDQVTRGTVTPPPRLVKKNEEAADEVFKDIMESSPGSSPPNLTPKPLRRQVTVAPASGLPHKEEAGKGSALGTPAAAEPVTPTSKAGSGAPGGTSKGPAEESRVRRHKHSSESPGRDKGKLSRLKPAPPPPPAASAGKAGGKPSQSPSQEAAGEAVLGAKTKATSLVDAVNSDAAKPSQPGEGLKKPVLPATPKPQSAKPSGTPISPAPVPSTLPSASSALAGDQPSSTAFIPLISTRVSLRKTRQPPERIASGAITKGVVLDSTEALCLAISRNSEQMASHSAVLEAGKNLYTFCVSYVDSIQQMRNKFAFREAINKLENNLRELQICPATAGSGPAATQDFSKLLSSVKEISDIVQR

[14] = system: Ba/F3 cells expressing TEL-JAK2; test: Ba/F3 TEL-JAK2 growth inhibition; assay type: cell-based
RET [15] = molecular target: T1, RET (Homo sapiens, UniProt P07949); test: Cell-based kinase selectivity assay; settings: follow-up of kinome panel hit
T1 sequence (P07949 29-1114, species assumed): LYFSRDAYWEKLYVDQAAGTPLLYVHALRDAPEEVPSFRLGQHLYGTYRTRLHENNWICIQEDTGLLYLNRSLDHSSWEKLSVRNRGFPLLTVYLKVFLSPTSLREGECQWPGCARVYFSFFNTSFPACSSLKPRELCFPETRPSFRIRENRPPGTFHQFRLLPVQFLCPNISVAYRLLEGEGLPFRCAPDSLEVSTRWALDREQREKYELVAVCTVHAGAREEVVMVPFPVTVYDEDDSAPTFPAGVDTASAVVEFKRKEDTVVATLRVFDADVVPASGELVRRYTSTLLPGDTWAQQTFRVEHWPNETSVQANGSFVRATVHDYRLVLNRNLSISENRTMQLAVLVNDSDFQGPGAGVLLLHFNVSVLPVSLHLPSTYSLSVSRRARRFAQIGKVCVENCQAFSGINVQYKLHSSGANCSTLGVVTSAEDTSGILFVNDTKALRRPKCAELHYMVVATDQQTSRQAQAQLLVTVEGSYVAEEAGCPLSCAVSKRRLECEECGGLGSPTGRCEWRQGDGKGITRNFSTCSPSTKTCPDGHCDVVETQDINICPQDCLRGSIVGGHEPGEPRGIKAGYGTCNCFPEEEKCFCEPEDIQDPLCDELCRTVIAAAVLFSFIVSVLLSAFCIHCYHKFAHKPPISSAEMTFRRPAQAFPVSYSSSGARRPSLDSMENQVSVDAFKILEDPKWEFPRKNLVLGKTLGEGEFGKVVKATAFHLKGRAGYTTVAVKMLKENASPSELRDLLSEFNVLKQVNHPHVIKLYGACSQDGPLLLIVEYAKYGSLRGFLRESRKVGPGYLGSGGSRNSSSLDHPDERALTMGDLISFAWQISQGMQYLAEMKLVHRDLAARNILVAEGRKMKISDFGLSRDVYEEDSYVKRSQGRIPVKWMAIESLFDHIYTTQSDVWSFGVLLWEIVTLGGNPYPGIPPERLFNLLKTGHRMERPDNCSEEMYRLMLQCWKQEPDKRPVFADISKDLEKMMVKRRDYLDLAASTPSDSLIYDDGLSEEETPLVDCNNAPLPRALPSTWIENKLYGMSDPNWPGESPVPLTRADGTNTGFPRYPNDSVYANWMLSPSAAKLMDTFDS

JAK2 = JAK2 (Homo sapiens, UniProt O60674); test: JAK2-driven cellular assays; assay type: cell-based
Chain of JAK2 (O60674 840-1132 limits assumed): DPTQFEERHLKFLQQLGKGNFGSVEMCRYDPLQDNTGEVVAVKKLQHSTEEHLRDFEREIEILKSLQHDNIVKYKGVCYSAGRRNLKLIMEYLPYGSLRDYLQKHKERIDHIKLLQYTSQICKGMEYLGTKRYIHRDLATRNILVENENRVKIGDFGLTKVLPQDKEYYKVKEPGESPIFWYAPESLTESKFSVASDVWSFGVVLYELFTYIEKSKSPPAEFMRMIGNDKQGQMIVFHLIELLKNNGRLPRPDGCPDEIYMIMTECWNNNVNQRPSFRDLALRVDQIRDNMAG

KIT = KIT (Homo sapiens, UniProt P10721); test: Cell-based kinase selectivity assay
[16] = Drug concentration within the spleen, rhEpo model; assay type: in vivo, mice; settings: oral 30 mg/kg/day
Passive permeability = assay type: in vitro ADME
[17] = system: Ba/F3-EpoR cells expressing JAK2 V617F or JAK2 V617F/L884P; test: Proliferation, L884P versus no L884P, JAK2 V617F; assay type: cell-based; settings: 48 hr
[18] = system: pSTAT5 in the spleen and bone marrow; test: rhEpo-induced pSTAT5 in murine model of polycythemia; assay type: in vivo, mice
BALB/c mice = test: rhEpo-induced splenomegaly and reticulocytosis, four days; assay type: in vivo; settings: 30 mg/kg/day, sacrificed day 5
RET [19] = molecular target: T1, RET; test: Off-target activity compared with BBT594
BRAF = BRAF (Homo sapiens, UniProt P15056); test: Cell-based kinase selectivity assay; settings: follow-up of kinome panel hit
Chain of BRAF (P15056 whole entry, species assumed): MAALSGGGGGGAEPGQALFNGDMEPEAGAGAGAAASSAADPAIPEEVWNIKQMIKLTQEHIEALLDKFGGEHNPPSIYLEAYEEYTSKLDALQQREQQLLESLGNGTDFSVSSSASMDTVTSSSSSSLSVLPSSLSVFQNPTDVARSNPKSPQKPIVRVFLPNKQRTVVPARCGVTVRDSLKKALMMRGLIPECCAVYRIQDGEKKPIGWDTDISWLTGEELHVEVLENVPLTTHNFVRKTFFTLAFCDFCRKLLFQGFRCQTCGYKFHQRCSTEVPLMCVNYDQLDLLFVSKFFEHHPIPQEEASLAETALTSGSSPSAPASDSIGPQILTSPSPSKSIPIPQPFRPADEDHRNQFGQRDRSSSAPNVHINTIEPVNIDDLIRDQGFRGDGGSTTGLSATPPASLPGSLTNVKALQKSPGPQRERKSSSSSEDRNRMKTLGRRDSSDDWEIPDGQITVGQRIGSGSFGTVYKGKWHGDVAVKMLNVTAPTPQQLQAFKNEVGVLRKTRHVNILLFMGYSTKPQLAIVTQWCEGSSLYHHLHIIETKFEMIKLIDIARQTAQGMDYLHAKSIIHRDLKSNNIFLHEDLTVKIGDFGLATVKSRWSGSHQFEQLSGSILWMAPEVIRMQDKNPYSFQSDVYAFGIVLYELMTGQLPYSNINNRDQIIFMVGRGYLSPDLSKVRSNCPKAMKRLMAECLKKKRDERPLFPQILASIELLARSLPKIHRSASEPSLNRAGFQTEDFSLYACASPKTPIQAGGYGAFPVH

PDGFR family kinases = test: Cell-based kinase selectivity assay
Metabolic stability = assay type: in vitro ADME

SMILES: N#CC[C@H](C1CCCC1)n1cc(-c2ncnc3[nH]ccc23)cn1 [ruxolitinib]
apoptosis ex vivo (CRLF2-rearranged PDXs [1]): little or no effect | proliferation ex vivo (CRLF2-rearranged PDXs [1]): little or no effect | JAK2 activation loop phosphorylation (MHH-CALL4 cells [2]): hyperphosphorylation

SMILES: C[C@@H]1C[C@H]2[C@@H]3CCC4=CC(=O)C=C[C@]4(C)[C@@]3(F)[C@@H](O)C[C@]2(C)[C@@]1(O)C(=O)CO [dexamethasone, reference compound]
overall survival compared to vehicle [3]: increased overall survival | synergy with CHZ868 (MHH-CALL4 cells [4]): most notable synergy

SMILES: CC(=O)Nc1cc(Oc2ccc3c(nc(Nc4ccc(F)cc4F)n3C)c2C)ccn1 [CHZ868]
pJAK2 and pSTAT5 by immunoblotting [7]: completely abrogated | resistant clones recovered after selection [8]: none | IC50 fold-shift for cells expressing L884P compared to cells without L884P [5]: 4 fold | effects on body weight, peripheral blood cell counts, bone marrow cellularity, fractions of hematopoietic progenitors (wild-type mice): no significant effects | spleen weights (wild-type mice): trends towards reduced | serum erythropoietin levels (wild-type mice; trend): elevated | activity against VEGFR family kinases in the cellular setting (VEGFR family kinases): low nanomolar activity | FLT3 inhibition compared with BBT594 (FLT3): significantly reduced | pSTAT5 in spleens ([9]; 30 mg/kg/day, 6 days): almost complete loss | peripheral WBC counts compared to control animals ([9]; 30 mg/kg/day, 6 days): lower | splenomegaly compared to control animals ([9]; 30 mg/kg/day, 6 days): reduced splenomegaly | overall survival compared to control animals ([9]; 25 days of treatment): markedly improved | apoptosis ex vivo (CRLF2-rearranged PDXs [1]): induced apoptosis | proliferation ex vivo (CRLF2-rearranged PDXs [1]): consistently blocked proliferation | blood t1/2 (Pharmacokinetics; mice): 1 h | blood clearance (Pharmacokinetics; mouse, in vivo): moderate | oral bioavailability (Pharmacokinetics; mouse, in vivo, po): good | inhibitory activity in enzymatic assays ([10]; activated (phosphorylated) JAK2 kinase): modest inhibitory activity | JAK2 inhibitory activity, fold improved over BBT594 ([10]; enzymatic and cell-based assays, Figure 1B): 3–9 fold | suppressive effects on pJAK2, pSTAT5, and c-Myc in presence of L884P [11]: abrogated | cytochrome C release upon exposure to BIM compared to vehicle (CRLF2-rearranged PDXs [12]): significantly increased | BCR-ABL inhibition compared with BBT594 (BCR-ABL): significantly reduced | number of kinases with activity [13]: 26 kinases | IC50 (MHH-CALL4 cells [6]): ~100 nM | overall survival compared to vehicle [3]: increased overall survival | activity against ABL in the cellular setting (ABL): not corroborated | activity in Ba/F3 TEL-JAK2 cells [14]: highly active | activity against RET in the cellular setting (RET [15]): not corroborated | potency in JAK2-driven cellular assays (JAK2): excellent potency | activity against KIT in the cellular setting (KIT): low nanomolar activity | concentration within the spleen ([16]; 2 hr after dosing): 4.3 nmol/g | drug level within the spleen ([16]; 6 hr after dosing): < 1 nmol/g | passive permeability (Passive permeability): high | JAK2 activation loop phosphorylation (MHH-CALL4 cells [2]): suppressed JAK2 phosphorylation | IC50 fold-shift for cells expressing L884P compared to cells without L884P [17]: 2–3 fold | induction of pSTAT5 by rhEpo ([18]; oral 30 mg/kg/day, administered 2 hr prior to sampling): completely blocked | time for which rhEpo induction of pSTAT5 remained attenuated ([18]; spleen and bone marrow): 48–72 hr | WBC count (BALB/c mice): did not affect | increase in reticulocyte count induced by rhEpo (BALB/c mice): blocked | splenomegaly induced by rhEpo (BALB/c mice): completely blocked | RET inhibition compared with BBT594 (RET [19]): significantly reduced | activity against BRAF in the cellular setting (BRAF): not corroborated | activity against PDGFR family kinases in the cellular setting (PDGFR family kinases): low nanomolar activity | metabolic stability (Metabolic stability): good

Continued, in another order:

IC50 fold-shift for cells expressing L884P compared to cells without L884P [5]: minimal effects
SMILES: C[C@@H]1CN(c2ccc(Nc3ncc4ccn(-c5cc(F)c(CN6CCOCC6)c(F)c5)c4n3)cc2)C[C@H](C)N1 [BVB808]
IC50 (MHH-CALL4 cells [6]): > 2000 nM | JAK2 activation loop phosphorylation (MHH-CALL4 cells [2]): hyperphosphorylation

IC50 fold-shift for cells expressing L884P compared to cells without L884P [5]: approximately 11 fold | IC50 fold-shift for cells expressing L884P compared to cells without L884P [17]: 2–3 fold
SMILES: CC(=O)Nc1cc(Oc2ccc3c(c2)CCN3C(=O)Nc2ccc(CN3CCN(C)CC3)c(C(F)(F)F)c2)ncn1 [BBT594]
resistant clones recovered after selection [8]: Over 30 clones | apoptosis ex vivo (CRLF2-rearranged PDXs [1]): induced apoptosis | proliferation ex vivo (CRLF2-rearranged PDXs [1]): consistently blocked proliferation | suppressive effects on pJAK2, pSTAT5, and c-Myc in presence of L884P [11]: abrogated | IC50 (MHH-CALL4 cells [6]): ~100 nM | JAK2 activation loop phosphorylation (MHH-CALL4 cells [2]): suppressed JAK2 phosphorylation

IC50 fold-shift for cells expressing L884P compared to cells without L884P [5]: minimal effects
SMILES: Fc1cc(-c2cccc3ncc(-c4cnn(C5CCNCC5)c4)nc23)cc(F)c1CN1CCOCC1 [BSK805]
IC50 (MHH-CALL4 cells [6]): > 2000 nM | JAK2 activation loop phosphorylation (MHH-CALL4 cells [2]): hyperphosphorylation
